Test results: patent US20110171135A1, “PEST-CONTROL COMPOSITIONS AND METHODS HAVING HIGH TARGET AND LOW NON-TARGET ACTIVITY” (priority 2008, published 2011)

How the values were obtained:
[1] = target: T1, tyramine receptor (TyrR) (Drosophila melanogaster, UniProt P22270); test: Tyramine receptor binding with 3H-tyramine in transfected Schneider cells
T1 construct: The open reading frame of the Drosophila tyramine receptor (TyrR) may be amplified via PCR; expressed in transfected cells; host or cells: Drosophila Schneider cells
T1 sequence (P22270 27-601): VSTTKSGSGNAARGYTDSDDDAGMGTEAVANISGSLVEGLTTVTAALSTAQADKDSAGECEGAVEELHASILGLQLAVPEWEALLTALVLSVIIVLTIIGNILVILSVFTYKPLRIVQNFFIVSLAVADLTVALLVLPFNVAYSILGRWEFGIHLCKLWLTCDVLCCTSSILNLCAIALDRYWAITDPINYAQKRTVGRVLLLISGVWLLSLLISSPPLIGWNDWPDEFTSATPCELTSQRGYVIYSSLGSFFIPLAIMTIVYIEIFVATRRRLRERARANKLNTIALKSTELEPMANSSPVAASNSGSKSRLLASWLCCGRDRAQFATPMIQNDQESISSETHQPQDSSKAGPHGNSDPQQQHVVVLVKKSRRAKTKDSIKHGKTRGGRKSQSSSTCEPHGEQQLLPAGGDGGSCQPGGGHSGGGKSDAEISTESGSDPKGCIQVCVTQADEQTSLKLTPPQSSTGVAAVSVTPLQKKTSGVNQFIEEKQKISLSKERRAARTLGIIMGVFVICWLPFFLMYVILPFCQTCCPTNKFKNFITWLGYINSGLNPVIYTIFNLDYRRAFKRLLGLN
Text: Tyramine receptor may be amplified, for example, from a Drosophila melanogaster head cDNA phage library. Phage DNA may be purified from this library by known methods using a liquid culture lysate. The open reading frame of the Drosophila tyramine receptor (TyrR) may be amplified via PCR, and the PCR product may be digested, and the TyrR open reading frame may be inserted into an expression vector using known methods, and transfected Schneider cell clones may be prepared.
Tyramine receptor binding/uptake may be performed to determine which of the transfected clones have the highest levels of functionally active tyramine receptor protein, and the selected clone may be propagated and stored in liquid nitrogen. Aliquots of the selected clone are grown for whole cell binding and for plasma membrane preparation for kinetic and screening studies.
For binding studies, cells transfected with the tyramine receptor (about 1×10^6 cells/ml) are cultured in each well of a multi-well plate, and binding is assessed using ^3H-tyramine and unlabeled tyramine. […] Saturation binding experiments may be performed to determine Bmax and Kd values for TyrR.

[2] = system: tyramine receptor mutant (TyrRneo30) strains; format: in vivo, Drosophila; settings: topically applied at LD50 determined against wild type; mortality 24 h after treatment; FIG. 4
Procedure: LD50 values of tested chemicals (determined against wild type Drosophila) were topically applied against wild type and tyramine receptor mutant (TyrRneo30) strains. Mortality was determined 24 h after treatment. Data are the average of three replicates, 5 flies per replicate. This experiment was repeated five times.

[3] = system: wild-type strain of E. coli; test: MIC over successive weeks (resistance development) in E. coli; format: cell-based; settings: MIC determined weekly and applied, repeated for 4 weeks
Procedure: Test compositions and conventional pesticides are compared to determine their respective ability to maintain pesticidal effectiveness over successive generations of pest species. For example, a wild-type strain of E. coli is treated with both penicillin (group 1) and a test composition from Table 1 or Table 2 (group 2). MIC (minimum inhibitory concentration; the lowest concentration of an antibacterial that will inhibit the visible growth of a microorganism after overnight incubation) values are determined at 1-week post-treatment for both groups, and the appropriate MIC amount is applied to both test populations. This is repeated for 4 weeks. […] In contrast, the MIC value for group 2 remains static, indicating a lack of resistance development among the group 2 population.

## NCCc1ccc(O)cc1 [Blend 3H-tyramine, ^3H-tyramine]
[1]; cells transfected with the tyramine receptor
  3H-tyramine concentration at which maximum specific binding occurs: about 5 nM

## Cc1ccc(C(C)C)cc1O [carvacrol]
[2]
  effect (mortality) on Drosophila expressing a mutant form of the tyramine receptor: did not affect

## NCCc1ccc(O)cc1 [tyramine]
[1]; untransfected cells, concentration as high as about 100 μM
  response of untransfected cells to tyramine: do not respond

## penicillin
[3]
  course of the MIC value over time (resistance development): increases over time
